We go through seven compounds from patent US9440941B2, “Substituted chroman-6-yloxy-cycloalkanes and their use as pharmaceuticals” (SANOFI, priority 2013, dated 2016).

As usually defined, the IC50 is the midpoint of a concentration-inhibition curve.

In this assay the target is T1, human NCX1 (Homo sapiens, UniProt P32418).
T1 construct: expressed in transfected cells
Kind of assay: Inhibition of Ca2+ influx into cells (NCX1 reverse mode), FLIPR Fluo-4 assay. The assay is classed as cell-based. The following applies: inhibition of NCX1 in reverse mode (Ca2+ influx into cells); read-out: NCX1rv IC50. Put shortly:
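CHO cells stably expressing human NCX1, loaded with Fluo-4 AM, preincubated with compound 45 min at 16 °C in pH 7.4 buffer (3.5 mM CaCl2). Reverse mode triggered by 20 µM gramicidin (final); Fluo-4 fluorescence read at 520 nm every 2 s. IC50 from percentage inhibition of max-minus-min fluorescence.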
`Cc1ccccc1C1CCc2cc(O[C@H]3CC[C@H](N)CC3)ccc2O1.Cl` (stereo partly drawn) [Example 156, trans-4-(2-o-Tolyl-chroman-6-yloxy)-cyclohexylamine]: the IC50 is 600 nM.

As to `Cc1ccccc1C1CCc2cc(OC3CCC(C(=O)NCc4ccno4)CC3)ccc2O1` (stereo not shown) [Example 158, N-(Isoxazol-5-ylmethyl)-4-(2-o-tolyl-chroman-6-yloxy)-cyclohexanecarboxamide], the IC50 amounted to 400 nM.

For the compound `NCC(=O)N[C@H]1CC[C@H](Oc2ccc3c(c2)CC[C@@H](c2ccccc2)O3)CC1` [Example 159, 2-Amino-N-[trans-4-((S)-2-phenyl-chroman-6-yloxy)-cyclohexyl]-acetamide], the half-maximal inhibitory concentration (IC50) was determined as 200 nM.

`Cc1ccccc1C1CCc2cc(OC3CCC(NCc4c(C)nn(C)c4C)CC3)ccc2O1` (stereo not shown) [Example 177, 4-(2-o-Tolyl-chroman-6-yloxy)-N-(1,3,5-trimethylpyrazol-4-ylmethyl)-cyclohexylamine]: the IC50 came to 3200 nM.

As for `O=C(N[C@H]1CC[C@H](Oc2ccc3c(c2)CCC(c2ccccc2)O3)CC1)[C@@H]1CCCN1` (stereo partly drawn) [Example 180, (S)—N-[trans-4-(2-Phenyl-chroman-6-yloxy)-cyclohexyl]-pyrrolidine-2-carboxamide], the IC50 came to 800 nM.

With `Cc1ccccc1[C@@H]1CCc2cc(O[C@H]3CC[C@H](C(=O)NCCO)CC3)ccc2O1` [Example 268, trans-4-((S)-2-o-tolyl-chroman-6-yloxy)-cyclohexanecarboxylic acid (2-hydroxy-ethyl)-amide], the IC50 worked out at 150 nM.

With `Cc1ccccc1[C@@H]1CCc2cc(O[C@H]3CC[C@H](C(=O)NCCOP(=O)([O-])[O-])CC3)ccc2O1.[Na+].[Na+]` [Example 303, Phosphoric acid mono-(2-{[trans-4-((S)-2-o-tolyl-chroman-6-yloxy)-cyclohexanecarbonyl]-amino}-ethyl) ester disodium salt], the IC50 came to 100 nM.
